Laboratory results reported in patent publication US11813235B2, “Guanfacine as an anti-virulence agent” (priority 2019, dated 2023).
Where two headings read alike, the source gives them in different places. *1 amine or outer side, *2 acyl side, *3 side chain or, on linkers, in order; H or OH if unused. Where a SMILES comes first, the peptide text is derived from it. Bridges are numbered along the chain shown (N, C = ends). [ ]: non-standard residue; d: D form. The star is where a group is joined. hTyr(3S-OH,4S-OH,3'-OSO3H) = N[C@H](C(=O)O)[C@H](O)[C@@H](O)c1ccc(O)c(OS(=O)(=O)O)c1; Orn(4R-OH,5R-OH) = O=C([C@H](C[C@@H](O)[C@@H](O)N[*:3])N[*:1])[*:2]; Pro(3S-OH,4S-Me) = C[C@H]1CN[C@H](C(=O)O)[C@H]1O; X1 = CCCCCOc1ccc(-c2cc(-c3ccc(C(=O)*)cc3)no2)cc1; Gln(3R-OH) = NC(=O)C[C@@H](O)[C@H](N)C(=O)O; Hyp = O=C(O)[C@@H]1C[C@@H](O)CN1

What was measured:
P. aeruginosa [1] = type: cell-based, Pseudomonas aeruginosa
Procedure: Growth and high-throughput LacZ assays were optimized in a 384-well plate format using three reporter strains In order to identify down-regulators of virulence, rather than growth-inhibitors of P. aeruginosa, special care was taken to eliminate compounds that (i) interfered with the LacZ assay and (ii) affected P. aeruginosa growth. […] Growth-inhibition assays using the small molecule library were performed by monitoring optical density at 600 nm (OD600 nm).
(§6) In various examples, bacterial growth was carried out in LB supplemented with 50 mM Mops, pH 7.0 (hereafter, LB-Mops). To commence a screen, a P. aeruginosa reporter strain from an LB agar plate was used to inoculate 5 mL of LB-Mops medium in a sterile 14-mL bacterial culture tube. The culture was grown for 4 h at 30° C./250 rpm. After 4 h, its optical density (OD600 nm) was determined on a Cary 60 UV-visible spectrophotometer (Agilent). The culture was diluted into 100 mL of LB-Mops to give a final OD600 nm of 0.05. Subsequently a volume of 50 μL was dispensed into each of six sterile, 384 well plates (Corning) using a Multiflo Microplate Dispenser (Biotek). Candidate elicitors were added to the plates using a CyBi-Well automated liquid transfer robot (CyBio). Each well was supplemented with 0.2 μL of a compound from the Enzo Scientific FDA approved drug library, which comprises 770 molecules. The compounds were dispensed into columns 3 through 22 on each plate. Columns 2 and 23 contained the negative control (the reporter strain being tested in the absence of any compounds), and columns 1 and 24 contained the positive control (e.g., strain phzB2-lacZ). Each compound was tested in duplicate, using three 384-well plates per set. Each plate was covered with a Breathe-Easy sealing membrane (Sigma) and cultured at 30° C./250 rpm in a Multitron Shaker (ATR) equipped with green sealing tray. To maintain constant humidity, several 1-L Erlenmeyer flasks containing 200 mL of sterile water were also placed inside the shaker. After 12 h, the plates were removed from the shaker. The β-Glo reagent (Promega) was used to monitor LacZ activity. The reagent was diluted 3:1 with water. Then each well was supplemented with 15 μL of the diluted β-Glo reagent using the Multiflo automated dispenser, manually shaken to mix, and incubated in the dark at room temperature for 10 min. Total end-point luminescence was then determined on a Synergy H1MF plate reader (Biotek).

[2] = tested on: P. aeruginosa phzF1-lacZ strain; test: Dose-dependent growth inhibition of phzF1-lacZ strain by antibiotics; type: cell-based
phzF1-lacZ = test: microbe, parasite or virus in culture; type: cell-based
[3] = tested on: virulence factor expression (seven lacZ reporter strains); type: cell-based, Pseudomonas aeruginosa
Excerpt: Seven reporter strains from the sequence-verified transposon mutant library generated by Manoil and colleagues were identified, in which transposons carrying a promoterless lacZ reporter were inserted into the genome of P. aeruginosa. The strains selected carried an in-frame lacZ reporter in aprD (alkaline protease), pqsA (PQS biosynthesis), hcnB (HCN biosynthesis), algK (alginate biosynthesis), phzB2 and phzF1 (phenazine biosynthesis from two different gene clusters), and plcH (phospholipase C). […] By carrying out an ex vivo LacZ assay, all LacZ assay inhibitors in a library of small molecules were identified. Growth-inhibition assays using the small molecule library were performed by monitoring optical density at 600 nm (OD600 nm).
After a defined growth period, the expression of each of the seven reporter strains was determined using high-throughput LacZ assays. The LacZ activity was normalized relative to the negative control. The log10 of the fold-change for each of the seven strains were combined and colorized to produce an anti-virulence heat-map.
as §6

pyocyanin biosynthesis = test: Pyocyanin quantification; type: cell-based, Pseudomonas aeruginosa; conditions: treated vs untreated cultures, concentration-dependent
Excerpt: FIG. 3C is a graph showing the dose-dependent reduction of pyocynanin biosynthesis as a function of guanfacine concentration.
The effects of guanfacine were probed further by measuring the levels of pyocyanin, a downstream product of phenazine. Pyocyanin is the blue secondary metabolite responsible for both the toxicity and characteristic color of P. aeruginosa. […]. Without being bound to a particular theory, the likely cause of the incomplete suppression of pyocyanin synthesis is the existence of two independently-expressed copies of the phenazine biosynthetic operon. Nonetheless, the direct measurement of pyocyanin corroborates results observed with the reporter strains. The production of both phenazines and pyocyanin is known to be regulated by the las and pqs QS circuits. Specifically, in response to 3O-C12-HSL, LasR induces expression of the pqs operon and the LysR-type regulator, PqsR. The PQS/PqsR complex then activates phenazine and pyocyanin synthesis. To verify that guanfacine acts upstream of both products, levels of quinolines were directly measured. […].
(§1) Pyocyanin quantification. Pyocyanin quantification was carried by a method adapted from Essar et al.[17] […] 120 μL of this extract was transferred to a clear 96-well plate and the OD520 nm was recorded using a plate reader. […]

pelB-lacZ = pelB-lacZ reporter dose-response; type: cell-based, Pseudomonas aeruginosa
Excerpt: (§2) FIG. 3F is a graph of the dose-response of the expression of pelG and pelB, involved in biofilm production, as a function of guanfacine concentration, using the appropriate LacZ reporter strain.
(§3) Another important virulence determinant in P. aeruginosa is biofilm formation. A cluster of genes, termed pel regulated by the las QS system, have been established as responsible for producing the biofilm matrix exopolysaccharide. Two reporter strains carrying translational lacZ fusions (pelB-lacZ and pelG-lacZ) were subjected to guanfacine dose-response analysis. […].
(§4) Assays were carried out in 50 mL Erlenmeyer flasks containing 10 mL of LB-Mops. For LacZ assays, an appropriate reporter strain from an LB agar plate was used to inoculate 5 mL of LB-Mops in a sterile 14 mL bacterial culture tube. After 4 h, OD600 nm was determined, and the culture subsequently diluted to an initial OD600 nm of 0.05 in a 50 mL Erlenmeyer flask. The compound of interest was added from stock concentrations generated in DMSO. A control containing only DMSO was also included. Assays were typically carried out in three biological replicates. […] End-point luminescence was determined on a Biotek H1MF plate reader. To obtain IC50 values, the averaged luminescence output (used to determine LacZ activity) was plotted against the log of the concentration of the inhibitor. […]

phzB2-lacZ = phzB2-lacZ reporter dose-response; type: cell-based; conditions: Pseudomonas aeruginosa, read-out: IC50, concentration at which half-maximal down-regulation was observed (phzB2 reporter)
Procedure: FIG. 3B is a graph showing the dose-response of phzB2-lacZ as a function of guanfacine concentration.
Assays were carried out in 50 mL Erlenmeyer flasks containing 10 mL of LB-Mops. For LacZ assays, an appropriate reporter strain from an LB agar plate was used to inoculate 5 mL of LB-Mops in a sterile 14 mL bacterial culture tube. After 4 h, OD600 nm was determined, and the culture subsequently diluted to an initial OD600 nm of 0.05 in a 50 mL Erlenmeyer flask. The compound of interest was added from stock concentrations generated in DMSO. A control containing only DMSO was also included. Assays were typically carried out in three biological replicates. A positive control culture, phzB2-lacZ in the absence of any compounds, was grown in parallel as well. The cultures were grown at 30° C./200 rpm. After 12 h, 65 μL was removed from each culture flask and dispensed into a sterile, white 96-well plate (Corning). Each well was supplemented with 35 μL of 3:1 diluted β-Glo reagent (Promega). The plate was incubated in the dark at room temperature for 10 minutes. End-point luminescence was determined on a Biotek H1MF plate reader. To obtain IC50 values, the averaged luminescence output (used to determine LacZ activity) was plotted against the log of the concentration of the inhibitor. The data were fit to a dose-response curve using GraphPad Prism software.

pelG-lacZ = pelG-lacZ reporter dose-response; type: cell-based, Pseudomonas aeruginosa
Excerpt: as §2, §3, §4

[4] = tested on: seven virulence genes (aprD, pqsA, hcnB, algK, phzB2, phzF1, plcH lacZ reporters); test: LacZ assay in flask cultures, seven virulence reporter strains; type: cell-based, Pseudomonas aeruginosa; conditions: relative to untreated control
Excerpt: FIG. 3A is a graph showing the transcriptional down-regulation of seven virulence genes by guanfacine relative to an untreated control.
The effect of guanfacine on the expression of virulence factors was verified in flask cultures. […].
In one example, reporter genes for the various virulence factors encoded in the P. aeruginosa genome were selected. Seven reporter strains from the sequence-verified transposon mutant library generated by Manoil and colleagues were identified, in which transposons carrying a promoterless lacZ reporter were inserted into the genome of P. aeruginosa. The strains selected carried an in-frame lacZ reporter in aprD (alkaline protease), pqsA (PQS biosynthesis), hcnB (HCN biosynthesis), algK (alginate biosynthesis), phzB2 and phzF1 (phenazine biosynthesis from two different gene clusters), and plcH (phospholipase C). […]
Assays were carried out in 50 mL Erlenmeyer flasks containing 10 mL of LB-Mops. […] After 4 h, OD600 nm was determined, and the culture subsequently diluted to an initial OD600 nm of 0.05 in a 50 mL Erlenmeyer flask. […] End-point luminescence was determined on a Biotek H1MF plate reader. To obtain IC50 values, the averaged luminescence output (used to determine LacZ activity) was plotted against the log of the concentration of the inhibitor. […]

[5] = tested on: pmrB::Tn mutant (QseC homolog); test: HHQ and pyocyanin production in pmrB::Tn mutant; type: cell-based, Pseudomonas aeruginosa; conditions: pmrB::Tn cultures supplemented with guanfacine
Procedure: FIG. 4 is a graph of the quantification of the levels of HHQ (black bars) and pyocyanin (white bars) in guanfacine-treated and untreated cultures.
To explore this idea, a mutant carrying a transposon insertion in pmrB (pmrB::Tn) was tested. Both wt and mutant strains were grown in the presence of guanfacine or DMSO (control), and the production of HHQ was quantified directly using HPLC-MS, while pyocyanin synthesis was assessed as previously reported. […] In the absence of the sensor His kinase, guanfacine was unable to exert its down-regulatory effect, especially with pyocyanin where significant production remained.
(§5) HPLC-MS analysis. Direct detection and quantification of HHQ and PQS was carried out by growing wt P. aeruginosa under identical conditions as described above (for growth in 50 mL Erlenmeyer flasks). […] The organic layer was separated, dried completely in a speedvac concentrator, resuspended in 0.5 mL of MeOH, and analysed on an Agilent HPLC-MS consisting of a liquid autosampler, a 1260 Infinity Series HPLC system coupled to a photodiode array detector and a 6120 Series ESI mass spectrometer. […]
as §1

HHQ and PQS production = test: HPLC-MS quantification of HHQ and PQS in wt P. aeruginosa; type: cell-based, Pseudomonas aeruginosa
Procedure: FIG. 3D is a graph showing the relative quantification of HHQ and PQS produced by wt P. aeruginosa as a function of guanfacine concentration, normalized to an untreated control.
[…]. This HPLC analysis of cell-free supernatants of P. aeruginosa in the absence (solid lines) or presence (dashed lines) of 40 μM guanfacine. Peaks corresponding to HHQ and PQS are labeled, peaks of other quinolones are indicated with an asterisk.
The effects of guanfacine were probed further by measuring the levels of pyocyanin, a downstream product of phenazine. Pyocyanin is the blue secondary metabolite responsible for both the toxicity and characteristic color of P. aeruginosa. […]. […] To verify that guanfacine acts upstream of both products, levels of quinolines were directly measured. […]
as §5

P. aeruginosa [6] = test: Growth curve of P. aeruginosa in absence and presence of guanfacine; type: cell-based, Pseudomonas aeruginosa; conditions: 10, 20, 40 and 80 μM guanfacine
Procedure: FIG. 2 is a graph showing the growth curve of P. aeruginosa in the absence (DMSO) and presence of guanfacine in various concentrations (10 μM, 20 μM, 40 μM, and 80 μM).

[7] = relative to the untreated strain, OD600 nm after 12 h
[8] = Pseudomonas aeruginosa, PHZF1LACZSTRAIN; read-out: growth-inhibitory IC50
[9] = Pseudomonas aeruginosa; read-out: EC50, concentration at which induction of phzF1-lacZ was half-maximal
[10] = LacZ activity normalized to negative control, seven reporter strains

In the case of Colistin, the “% Growth Inhibition” value (P. aeruginosa [1]; [7]) is reported as 96%.

CC(C)(O/N=C(\C(=O)N[C@@H]1C(=O)N2C(C(=O)O)=C(C[n+]3ccccc3)CS[C@H]12)c1csc(N)n1)C(=O)O [ceftazidime] was tested, and the IC50 [2, 8] was 53 µM and the EC50 (phzF1-lacZ; [9]) was 21 µM.

With CCCCCOc1ccc(-c2cc(-c3ccc(C(=O)N[C@H]4C[C@@H](O)[C@@H](O)NC(=O)[C@@H]5[C@@H](O)[C@@H](C)CN5C(=O)[C@H]([C@H](O)CC(N)=O)NC(=O)[C@H]([C@H](O)[C@@H](O)c5ccc(O)c(OS(=O)(=O)O)c5)NC(=O)[C@@H]5C[C@@H](O)CN5C(=O)[C@H]([C@@H](C)O)NC4=O)cc3)no2)cc1 [Micafungin] (X1-[Orn(4R-OH,5R-OH)]T[Hyp][hTyr(3S-OH,4S-OH,3'-OSO3H)][Gln(3R-OH)][Pro(3S-OH,4S-Me)]; lactam 1-C) the “% Growth Inhibition” value (P. aeruginosa [1]; [7]) was 54%.

CC(C)Cc1ccc(C(C)C(=O)O)cc1 (stereo not drawn) [ibuprofen] was tested, and the “effect on virulence factor expression in screen” value (from here on “effect … in screen”) [3, 10] was “down-regulated virulence factor expression”.

In the case of CCCCCCCCc1ccc(CCC(N)(CO)CO)cc1 [Fingolimod], the “% Growth Inhibition” value (P. aeruginosa [1]; [7]) is reported as 76%.

With CCN1CCN(C(=O)N[C@@H](C(=O)N[C@@H]2C(=O)N3[C@@H]2SC(C)(C)[C@@H]3C(=O)O)c2ccccc2)C(=O)C1=O [Piperacillin] the IC50 [2, 8] was 6.4 µM, the “effect … in screen” value [3, 10] was “further enhance the expression of virulence factors” and the EC50 (phzF1-lacZ; [9]) was 8.4 µM.

C[C@]12CC[C@@H]3c4ccc(O)cc4CC[C@H]3[C@@H]1CC[C@@H]2O [Estradiol] was tested, and the “% Growth Inhibition” value (P. aeruginosa [1]; [7]) was 73%.

In the case of CC(C(=O)O)c1cccc(C(=O)c2ccccc2)c1 (stereo not drawn) [ketoprofen], the “effect … in screen” value [3] is reported as “down-regulated virulence factor expression”.

Work on C/C=C/C1=C(C(=O)O)N2C(=O)[C@@H](NC(=O)[C@H](N)c3ccc(O)cc3)[C@H]2SC1 [cefprozil] yielded an IC50 ([2]; Pseudomonas aeruginosa, PHZF1LACZSTRAIN, read-out: growth-inhibitory IC50) of 362 µM and an EC50 (phzF1-lacZ; Pseudomonas aeruginosa, read-out: EC50, concentration at which induction of phzF1-lacZ was half-maximal) of 58 µM.

O=C(N[C@H](CO)[C@H](O)c1ccc([N+](=O)[O-])cc1)C(Cl)Cl [Chloramphenicol] was tested, and the “% Growth Inhibition” value (P. aeruginosa [1]; [7]) was 64%.

With N=C(N)NC(=O)Cc1c(Cl)cccc1Cl [guanfacine] the “reduction in the levels of pyocyanin” value (pyocyanin biosynthesis) was 1.5 fold, the “suppression of pelB expression” value (pelB-lacZ; 80 μM guanfacine) was “Nearly complete suppression” and the IC50 (pelB-lacZ; Pseudomonas aeruginosa, pelB-lacZ) was 5.8 µM. The IC50 (phzB2-lacZ) was 19 µM, the “suppression of pelG expression” value (pelG-lacZ; 80 μM guanfacine) was “Nearly complete suppression” and the IC50 (pelG-lacZ; Pseudomonas aeruginosa, pelG-lacZ) was 3.1 µM. The “effect … in screen” value [3, 10] was “A similar effect”, the “reduction of reporter expression across seven reporter strains” value [4] was 2-9 fold and the “effect on HHQ and pyocyanin production in pmrB::Tn cultures” value [5] was “no further effect”. The “levels of HHQ, PQS and several other quinolines” value (HHQ and PQS production) was “decreased levels”, the “fold less PQS relative to DMSO-treated control” value (HHQ and PQS production; 40 μM guanfacine) was 4.5 fold and the “growth inhibition (growth curve versus DMSO control)” value (P. aeruginosa [6]) was “not growth-inhibitory”.

In the case of [H]/N=C(\N/C(=N/[H])NCCCCCCNC(=N)NC(=N)Nc1ccc(Cl)cc1)Nc1ccc(Cl)cc1 [Chlorhexidine], the “% Growth Inhibition” value (P. aeruginosa [1]; [7]) is reported as 96%.

Cc1ccc(C(=O)c2cc(O)c(O)c([N+](=O)[O-])c2)cc1 [tolcapone] was tested, and the “effect … in screen” value [3, 10] was “A similar effect”.

For CN1CCc2cccc3c2[C@H]1Cc1ccc(O)c(O)c1-3 [apomorphine], the “effect … in screen” value [3] was “A similar effect”.

CC/C(=C(\c1ccccc1)c1ccc(OCCN(C)C)cc1)c1ccccc1 [Tamoxifen] was tested, and the “% Growth Inhibition” value (P. aeruginosa [1]) was 57%.

For CO/N=C(\C(=O)N[C@@H]1C(=O)N2C(C(=O)O)=C(C[N+]3(C)CCCC3)CS[C@H]12)c1csc(N)n1 [cefepime], the IC50 [2, 8] was 4.6 µM.

For COc1ccc2cc([C@H](C)C(=O)O)ccc2c1 [naproxen], the “effect … in screen” value [3] was “down-regulated virulence factor expression”.

COc1cc(Cc2cnc(N)nc2N)cc(OC)c1OC [Trimethoprim] was tested, and the “% Growth Inhibition” value (P. aeruginosa [1]) was 73%.
